In patent US20020028938A1, “Prostaglandin endoperoxide H synthase biosynthesis inhibitors” (priority 1997, published 2002):
pIC50: −log10 of the molar value.

Experiments:
[1] = molecular target: T1, recombinant human Cox-1 (r-hu Cox1) (Homo sapiens, UniProt P23219); experiment: Recombinant human PGHS-1 enzyme assay (RHUCX1); type: biochemical; conditions: for inhibition at 10 µM / inhibition at 100 µM: read-out: RHUCX1 % Inh. at Dose
T1 construct: made in house; host or cells: baculovirus/Sf9 insect cells (microsomes)
Summary of the method: (§1)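 IC50 values come from linear regression of percent inhibition, itself calculated against the mean of untreated controls. The underlying signal is PGE2, determined by EIA after a brief room-temperature reaction (2.5 minutes) terminated with acid and then base-neutralized.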

[2] = molecular target: T2, recombinant human Cox-2 (r-hu Cox-2) (Homo sapiens, UniProt P35354); experiment: Recombinant human PGHS-2 enzyme assay (RHUCX2); type: biochemical; conditions: for pIC50: read-out: RHUCX2 IC50 (parenthetical value); for inhibition at 0.01 µM / inhibition at 0.1 µM / inhibition at 1 µM: read-out: RHUCX2 % Inh. at Dose
T2 construct: made in house; host or cells: baculovirus/Sf9 insect cells (microsomes)
T2 sequence (P35354 18-604): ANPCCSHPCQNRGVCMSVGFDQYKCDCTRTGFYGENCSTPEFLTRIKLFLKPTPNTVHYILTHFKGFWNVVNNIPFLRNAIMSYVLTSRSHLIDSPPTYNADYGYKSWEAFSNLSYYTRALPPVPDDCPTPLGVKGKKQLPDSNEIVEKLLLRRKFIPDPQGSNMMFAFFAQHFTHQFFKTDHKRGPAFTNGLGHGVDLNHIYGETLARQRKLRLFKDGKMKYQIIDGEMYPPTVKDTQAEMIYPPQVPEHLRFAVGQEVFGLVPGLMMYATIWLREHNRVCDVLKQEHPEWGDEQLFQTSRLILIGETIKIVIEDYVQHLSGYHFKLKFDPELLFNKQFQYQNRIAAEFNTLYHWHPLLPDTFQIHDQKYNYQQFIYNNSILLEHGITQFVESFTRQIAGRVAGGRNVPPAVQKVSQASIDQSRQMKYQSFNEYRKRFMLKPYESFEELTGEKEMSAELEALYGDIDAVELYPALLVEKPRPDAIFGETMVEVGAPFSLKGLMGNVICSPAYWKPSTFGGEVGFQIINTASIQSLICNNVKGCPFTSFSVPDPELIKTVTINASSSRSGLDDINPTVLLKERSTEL
Summary of the method: as §1

[3] = tested on: air pouch prostaglandin biosynthesis (Cox-2); experiment: Carrageenan induced air pouch prostaglandin biosynthesis model (CAP); type: in vivo, rat; conditions: 3 mpk, rat; for inhibition in vivo at 3 mg/kg: 4 h, read-out: CAP % Inhib. @ 3 mpk
Experimental: To compare the mean responses of the treatment groups, analysis of variance was applied. Percent inhibition values were determined by comparing the individual treatment mean values to the mean of the control group. Linear regression was used to estimate IC50's/ED50's in appropriate assays.
Carrageenan induced air pouch prostaglandin biosynthesis model (CAP) Air pouches are formed in the backs of male Sprague Dawley rats by injecting 20 mL of sterile air on day 0. Three days later the pouch was reinflated with an additional 10 mL of sterile air. On day 7, 1 mL of saline containing 0.2 % lambda carrageenan (Sigma Chemical Co.) is injected into the pouch to induce the inflammatory reaction that is characterized by the release of prostaglandins. Test compounds are dosed at 0.1 to 10 mg/kg 30 minutes prior to carrageenan. Four hours after the carrageenan injection the pouch is lavaged and levels of prostaglandins are determined by enzyme immuno-assay using commercially available kits. […] Values for Cox-2 inhibition that are parenthetical indicate ED50 values.

T1 sequence (P23219 24-599): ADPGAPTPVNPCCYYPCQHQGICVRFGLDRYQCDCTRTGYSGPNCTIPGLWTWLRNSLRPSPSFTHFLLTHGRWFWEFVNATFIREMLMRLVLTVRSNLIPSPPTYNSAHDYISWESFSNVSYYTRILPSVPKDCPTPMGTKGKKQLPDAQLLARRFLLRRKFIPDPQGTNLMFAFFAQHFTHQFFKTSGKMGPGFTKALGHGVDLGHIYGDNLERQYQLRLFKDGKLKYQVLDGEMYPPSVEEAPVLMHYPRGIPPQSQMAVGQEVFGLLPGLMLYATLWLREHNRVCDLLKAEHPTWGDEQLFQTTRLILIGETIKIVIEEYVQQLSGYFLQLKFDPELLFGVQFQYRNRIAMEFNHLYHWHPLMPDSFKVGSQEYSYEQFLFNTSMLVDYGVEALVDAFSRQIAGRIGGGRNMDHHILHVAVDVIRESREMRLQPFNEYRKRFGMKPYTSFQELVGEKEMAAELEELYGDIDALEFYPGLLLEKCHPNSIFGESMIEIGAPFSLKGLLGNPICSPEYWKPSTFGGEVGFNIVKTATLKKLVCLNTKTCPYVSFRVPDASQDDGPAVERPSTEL

SMILES | inhibition at 100 µM [1] | pIC50 [2] | melting point | inhibition at 0.01 µM [2] | inhibition at 0.1 µM ([2]; 0.1 μM) | inhibition at 1 µM ([2]; 1 μM) | inhibition in vivo at 3 mg/kg [3] | also measured
COC(C)CCOc1c(-c2ccc(S(C)(=O)=O)cc2)cnn(-c2ccc(F)c(F)c2)c1=O (centres unmarked) [Example 353, 2-(3,4-Difluorophenyl)-4-[3-(methoxy)butoxy]-5-[4-(methylsulfonyl)phenyl]-3(2H)-pyridazinone] | 6% | 6.08 | 99 to 101 °C | – | – | – | 0% | –
Cc1cc(-c2c(-c3ccc(S(N)(=O)=O)cc3)cnn(-c3ccc(F)cc3)c2=O)ccc1F [Example 390] | – | – | – | – | – | – | – | RHUCX1 % Inh. at Dose (μM) ([1]; 1 μM): 45 @ 1%; RHUCX1 % Inh. at Dose (μM) ([1]; 10 μM): 88 @ 10%; RHUCX2 % Inh. at Dose (μM) ([2]; 0.1 μM): 60 @ 0.1%; RHUCX2 % Inh. at Dose (μM) ([2]; 1 μM): 72 @ 1%; RHUCX2 % Inh. at Dose (μM) ([2]; 10 μM): 99 @ 10%; CAP % Inhib. @ 3 mpk [3]: 60%
CC(C)COc1c(-c2ccc(S(C)(=O)=O)cc2)cnn(-c2ccc(F)c(F)c2)c1=O [Example 346, 2-(3,4-Difluorophenyl)-4-(2-methylpropoxy)-5-[4-(methylsulfonyl)phenyl]-3(2H)-pyridazinone] | 14% | – | 116 to 117 °C | 48% | 76% | 94% | 49.5% | –
CC(C)CSc1c(-c2ccc(S(C)(=O)=O)cc2)cnn(-c2cccc(Cl)c2)c1=O [Example 361, 2-(3-Chlorophenyl)-4-[2-(methylpropyl)thiol]-5-[4-(methylsulfonyl)phenyl]-3(2H)-pyridazinone] | 3% | 7.96 | – | – | – | – | 65% | –
CCC(C)CCOc1c(-c2ccc(S(C)(=O)=O)cc2)cnn(-c2ccc(F)c(F)c2)c1=O (centres unmarked) [Example 351, 2-(3,4-Difluorophenyl)-4-(3-methylpentyloxy)-5-[4-(methylsulfonyl)phenyl]-3(2H)-pyridazinone] | 3% | – | 100 to 102 °C | 42% | 63% | 91% | 0% | –

Second part, led by results:

inhibition at 100 µM [1] | pIC50 [2] | melting point | inhibition at 0.01 µM [2] | inhibition at 0.1 µM ([2]; 0.1 μM) | inhibition at 1 µM ([2]; 1 μM) | SMILES | inhibition in vivo at 3 mg/kg [3] | also measured
90% | 6.70 | 154 to 156 °C | – | – | – | CC(C)CCc1c(-c2ccc(S(N)(=O)=O)cc2)cnn(-c2ccc(F)c(Cl)c2)c1=O [Example 405, 2-(3-Chloro-4-fluorophenyl)-4-(3-methylbutyl)-5-[4-(aminosulfonyl)phenyl]-3(2H)-pyridazinone] | 53% | inhibition at 10 µM ([1]; 10 μM): 61%
32% | 6.77 | 224 to 226 °C | – | – | – | NS(=O)(=O)c1ccc(-c2cnn(-c3ccc(F)c(F)c3)c(=O)c2Oc2ccc(F)cc2)cc1F [Example 407] | 61% | –
– | – | 110 to 112 °C | – | – | – | C=C(C)CCOc1c(-c2ccc(S(C)(=O)=O)cc2)cnn(-c2cccc(Cl)c2)c1=O [Example 427, 2-(3-Chlorophenyl)-4-(3-methyl-3-butenoxy)-5-[4-(methylsulfonyl)phenyl]-3(2H)-pyridazinone] | 78% | –
12% | 7.00 | 124 to 128 °C | – | – | – | CS(=O)(=O)c1ccc(-c2cnn(-c3cccc(Cl)c3)c(=O)c2OCCC2CC2)cc1 [Example 419, 2-(3-Chlorophenyl)-4-(2-cyclopropane-1-ethoxy)-5-[4-(methylsulfonyl)phenyl]-3(2H)-pyridazinone] | 48% | –
91% | – | 80 to 85 °C | 34% | 77% | 93% | CC(C)COc1c(-c2ccc(S(N)(=O)=O)cc2)cnn(-c2cccc(Cl)c2)c1=O [Example 395, 2-(3-Chlorophenyl)-4-(2-methylpropoxy)-5-[4-(aminosulfonyl)phenyl]-3(2H)-pyridazinone] | 71% | inhibition at 10 µM ([1]; 10 μM): 35%
